Laboratory results reported in patent US8476317B2, “N-alkylcarbonyl-amino acid ester compounds and their use for cough and pharyngitis” (priority 2011, dated 2013).

Experiments:
Type in all cases: in vivo, human
[1] = tested on: philtrum skin; assay: Cooling on facial (philtrum) skin, ointment; settings: for skin or eye irritancy: in vivo; for Philtrum Skin (min), duration of cooling: 5 mg/ml in Aquaphor ointment
From the text: A reliable place for topical application is the skin above the upper lip (above the vermilion border of the lips), on the philtrum, lateral to the philtrum until the nasolabial folds, and on the lower nostrils (subnasale). This part of the face is known to be densely innervated with cold receptors, second only to the surfaces of the eyeball and anogenitalia. At this locus, tingling, cool and cold sensations in the skin may be experienced and rated for time of onset and intensity.
The intervals for recording sensations are 5 to 10 minutes, until two successive zeroes are obtained. The results (shown in FIG. 1) are averaged values of 4 to 6 separate trials in the same individual. The data are plotted using SigmaPlot® (Systat Software, Point Richmond Calif.) and a smoothing function with a negative exponential was used for analysis and statistical fit of the results. Confirmatory trials of cooling action of the long-acting NACE compounds were obtained in 2 to 4 individuals but not quantified for some because of the large number of chemicals that were evaluated.
The onset of drug action is taken as the time to reach 2 units of coolness intensity, and offset of drug action is the time when coolness intensity drops below 2, after previously surpassing 2 units. The duration of cooling action is defined as the offset time minus the onset time. […] The quality of the sensation is noted, for example, as pure refreshing coolness, or if the sensation is accompanied by irritation (stinging or burning). The quality of the sensation is not rated for intensity.
For bioassay on the skin, approximately 30 mg was stirred and dissolved in 3 g of warm liquid Aquaphor® ointment to a yield a 40 mM (˜1% wt/vol) ointment. The exact amount was adjusted so that the molar equivalent was about 35 to 40 mM. After cooling, 40 to 70 mg of the solid ointment was placed on the tip of a plastic stick and applied to the skin above the upper lip, on the philtrum, and lateral to the philtrum, up to the nasolabial folds, of test subjects and the onset and duration of cooling sensations noted.
The intervals for recording sensations were 5 to 10 minutes, until two successive zeroes were obtained. The results (shown in FIG. 1) are averaged values of 4 to 6 separate trials in the same individual. The data are plotted using SigmaPlot® (Systat Software, Point Richmond, Calif., USA) and a smoothing function with a negative exponential was used for analysis and statistical fit of the results.
The onset of drug action was taken as the time to reach 2 units of coolness intensity, and offset of drug action was the time when coolness intensity drops below 2, after previously surpassing 2 units. The duration of cooling action was defined as the offset time minus the onset time. […] The quality of the sensation was also noted: such as pure refreshing coolness, or if the sensation was accompanied by irritation (stinging or burning). The quality of the sensation was not rated for intensity.
In the results of FIG. 1, the test compounds were singly applied to the skin above the upper lips as a ˜1% wt/vol (10 mg/ml) ointment. Subsequently, for the results shown in Table 3, the test dose on the philtrum was reduced to a 0.5% wt/vol (5 mg/ml) ointment. The reason for choosing a lower dose was to increase the number of trials per individual and to have a reduced chance of substances accumulating in the skin.

[2] = tested on: pharyngeal surface; assay: Chili-pepper sauce cough challenge test; design: key: If there is no attenuation of the challenge stimuli, the score is 0; if there is partial inhibition, the score is +; if there is complete attenuation of the cough signal, the score is ++; settings: challenge 45 to 50 min after ODT containing 2 mg of test substance
From the text: A number of cough challenge methods have been devised for evoking the cough reflex (Morice et al. Briti. J. Clin. Pharmacol. 52: 365-375, 2001). Usually, citric acid or capsaicin is delivered via the inhalation route to volunteers and the number of coughs counted. […] The chili pepper sauce used here is called Yank Sing® Chili Pepper Sauce (YS Gourmet Productions, Inc., PO Box 26189, San Francisco, Calif. 94126) and is a well-known condiment for use with dim sum (Chinese tea lunch). The sensations associated with the chili pepper sauce are located in the back of the mouth and are clearly recognized and associated with a desire to clear the throat. […] To test for anti-cough activity the ODT with the test substance is first administered onto the dorsal surface of the tongue and 45 to 50 min afterwards the chili-pepper sauce test is administered. If there is no attenuation of the challenge stimuli, the score is 0, if there is partial inhibition, the score is +, and if there is complete attenuation of the cough signal, the score is ++. In the presence of an ODT that results in a ++ score, the irritative signals are completely absent, yet the salty taste used in the soy sauce of the condiment can still be easily tasted. The test substances in the ODT that produced a ++ score were then identified and further tested for effectiveness in the treatment of cough.

[3] = tested on: ocular surface; assay: Eye wipe test, duration of cooling on ocular surface; settings: eye wipes 1 mg/ml in 5%-95% v/v ethanol-distilled water
Description: To further document the activities fo the test molecules, the results from an eye wipe test was included. Here the test substance is applied to the closed eyelids with a towelette at a concentration of 1 mg/ml in 5%-ethanol-95%-distilled water vol/vol and the duration of cooling on the ocular surface was recorded. […] It is likely that the mucous membranes that line the ocular surface and the pharynx have similar sensory mechanisms that are somewhat different from the philtrum skin which is keratinized.

Compound	skin or eye irritancy [1]	Chili-Pepper Sauce Test [2]	Eyelids/Ocular Surface (min), duration of cooling [3] [min]	Philtrum Skin (min), duration of cooling [1] [min]
CCOC(=O)[C@@H](C)NC(=O)[C@@H]1C[C@H](C)CC[C@H]1C(C)C [D-Ala-OEt, (R)-2-[((1R,2S,5R)-2-isopropyl-5-methyl-cyclohexanecarbonyl)-amino]-propionic acid ethyl ester]	without skin or eye irritancy	++	180	
COC(=O)[C@@H](C)NC(=O)[C@@H]1C[C@H](C)CC[C@H]1C(C)C [D-Ala-OMe, (R)-2-[((1R,2S,5R)-2-isopropyl-5-methyl-cyclohexanecarbonyl)-amino]-propionic acid methyl ester]	without skin or eye irritancy	++	120	77
CCOC(=O)C(C)NC(=O)[C@@H]1C[C@H](C)CC[C@H]1C(C)C (stereo partly drawn) [L-Ala-OEt]		0	0	34
